From US12564622B2, “Preventing cytokine release syndrome” (priority 2017, dated 2026)
Where “and” joins values, the source holds several entries; their conditions need not be identical. Identical values can stand only once. Entries after “also recorded” stand apart in the source; their conditions may differ.

Tests used:
[1] = tested on: human U937-derived macrophage cells; test: U937 macrophage catecholamine and cytokine production; assay type: cell-based; conditions: LPS 1 μg/ml and/or epinephrine 15 ng/ml, metyrosine 2 mM
Method: Human U937 cells were cultured in RPMI 1640 media with 5% FBS and antibiotics, and were differentiated to M1 macrophage-like cells by incubating with 20 nM phorbol 12-myristate 13-acetate (PMA, Sigma) for 24 hours and further culturing in RPMI 1640 media with 5% FBS and antibiotics for another 72 hours. The experiments with U937 were set up in the same way as described above with peritoneal macrophages. […] Cells were incubated for 24 hours with LPS at 1 μg/ml.

[2] = tested on: co-culture of hCART19 and Raji cells; test: In vitro co-culture of Raji and hCART19 cells; assay type: cell-based, human; conditions: Raji with hCART19 (1:5), 24 hours; metyrosine 2 mM or ANP 5 μg/ml
Source text: Human CD19scFv-CD28-4-1BB-CD3ζ CAR-T cells (PM-CAR1003) were purchased from Promab Biotechnologies and maintained less than 7 days in AIM-V medium (GIBCO) supplemented with 300 IU/ml of hIL2 (Peprotech), 5% FBS and antibiotics (Car-T medium).

[3] = tested on: C. novyi-NT therapy-induced toxicity in mice bearing large subcutaneous CT26 tumors; test: C. novyi-NT therapy of large subcutaneous CT26 tumors (therapy-induced toxicity); assay type: in vivo, mouse (BALB/c); conditions: for mice surviving: CT26 tumor-bearing BALB/c mice, 12×10^6 spores intratumorally, ANP (osmotic pump 12 μg/day) or metyrosine (IP pre-treatment) given with parental C. novyi-NT
Method: ANP concentrations in the supernatant of ANP-C. novyi-NT culture and in mouse plasma were measured by an Elisa kit from Ray Biotech (EIAR-ANP-1) that recognizes both human and mouse ANP. ANP in the supernatant of ANP-C. novyi-NT culture were shown biological activities as described elsewhere (Lofton et al., 1990 Biochem. Biophys. Res. Comm., 172:793-9). Briefly, bacterial supernatants were applied to cultured bovine aortic endothelial cells (BAOEC, Cell Applications Inc.) for 3 minutes. cGMP concentrations were then measured in BAOEC lysates by the Direct cGMP Elisa Kit from Enzo following the manufacture's instruction.
The colon cancer cell line CT26 was injected subcutaneously into the right flank of six to eight week old female Balb/C mice as described elsewhere (Qiao et al., 2011 Oncotarget, 2:59-68). Tumor sizes were measured with a caliper and calculated as ½*L*W*H as described elsewhere (Tomayko et al., 1989 Can. Chemother. Pharmacol., 24:148-54). When tumors reached 600-900 mm^3 after about two weeks, 12×10^6 spores of C. novyi-NT or ANP-C. novyi-NT at 3×10^6/μl were injected intratumorally into 4 central parts of the tumor with a 32 G Hamilton syringe needle. The bacteria typical germinated in the tumors within 24 hours, turning them necrotic. Hydration of the mice was supported by daily subcutaneous injections of […] saline. Human ANP (Sigma) was dissolved in saline, loaded in mini-osmotic pumps (ALZET) with a release rate of 12 μg/day and implanted subcutaneously in the back of mice 12 hours before the spore injection. Pumps loaded with saline served as controls. Metyrosine was dissolved in PBS and injected IP at 60 mg/kg/day for three days before the C. novyi injection to deplete catecholamines in storage. Two hours after the spore injection, 60 mg/kg of metyrosine was injected intraperitoneally (IP). For each of the next three days, IP injections of metyrosine at 30 mg/kg were administered. Control groups were injected with PBS at the same time points.
Blood samples were collected into tubes containing 5 mM EDTA and 4 mM sodium metabisulfite after puncturing the facial vein or (terminally) by cardiac puncture. Subsequently, the samples were centrifuged and the plasmas were stored at −80° C. prior to analysis. Catecholamines (dopamine, norepinephrine and epinephrine) were measured using the 3-CAT Research ELISA kit from Labor Diagnostika Nord GmbH/Rocky Mountain Diagnostics. Cytokines were measured using Luminex assays based on Millipore Mouse and Human Cytokine/Chemokine panels.
ANP concentrations in the supernatant of ANP-C. novyi-642 NT culture and in mouse plasma were measured with an Elisa kit from Ray Biotech (EIAR-ANP-1) that recognizes both human and mouse ANP. […] Briefly, bacterial supernatants were applied to cultured bovine aortic endothelial cells (BAOEC, Cell Applications Inc.) for 3 minutes. cGMP concentrations were then measured in BAOEC lysates by the Direct cGMP Elisa Kit from Enzo following the manufacture's instruction.
The colon cancer cell line CT26 was injected subcutaneously into the right flank of six to eight weeks old female Balb/C mice as described elsewhere (see, e.g., Qiao et al. 2011 Oncotarget 2:59-68). Tumor sizes were measured with a caliper and calculated as ½*L*W*H as described elsewhere (see, e.g., Tomayko et al. 1989 Cancer Chemother Pharmacol 24:148-154). When tumors reached 600-900 mm^3 after about two weeks, 12×10^6 spores of C. novyi-NT or ANP-C. novyi-NT at 3×10^6/μl were injected intratumorally into 4 central parts of the tumor with a 32 G Hamilton syringe needle. The bacteria typical germinated in the tumors within 24 hours, turning them necrotic. Hydration of the mice was supported by daily subcutaneous injections of 500 μl saline. Human ANP (Sigma) was dissolved in saline, loaded in mini-osmotic pumps (ALZET) with a release rate of 12 μg/day and implanted subcutaneously in the back of mice 12 hours before the spore injection. Pumps loaded with saline served as controls. […]

[4] = tested on: anti-CD3 antibody-induced CRS in BALB/c mice; test: Anti-CD3 treatment induced CRS; assay type: in vivo, mouse (BALB/c)
Method: (§1) Metyrosine was freshly dissolved in PBS and injected IP at 60 mg/kg/day for three days prior to injection of anti-CD3 antibodies. […] Thirty minutes before the IP injection of the anti-mouse CD3 antibody (BioXcell, 145-2C11), metyrosine was IP injected at 60 mg/kg into the contralateral side. A single additional dose of 30 mg/kg metyrosine was injected IP on the following day. Control groups were injected with PBS at the same times.
as §1, with “times. For experiments with conditional TH knockout mice, 4-6 week-old LysMcre: TH fl/fl (TH^ΔLysM) mice with C57BL/6 background were used and LysMcre: TH+/+ mice of the same age were used as control. In these experiments, 200 μg/mouse anti-mouse CD3 antibody was injected IP.” for “times.”

[5] = tested on: polymicrobial peritoneal sepsis induced by CLP; test: Cecal ligation and puncture (CLP) sepsis; assay type: in vivo, mouse (C57BL/6); conditions: ANP given after CLP
[6] = plasma, 36 hours after spore injection, versus parental C. novyi-NT alone
[7] = 24 hours after anti-CD3, metyrosine pre-treatment

Row | Structure (SMILES) | catecholamines and cytokines [1] | catecholamine production [2] | cytokine production [2] | mice surviving [3] | circulating catecholamines [3, 6] | circulating inflammatory cytokines and chemokines [3, 6] | IL-2 and IFN-γ [4, 7] | circulating catecholamines [4, 7] | pro-inflammatory cytokines (IL-6, TNF-α, KC, MIP-2, MIP-1α) [4, 7] | mice surviving (of mice pre-treated) ([4]; anti-CD3 125 μg/mouse, metyrosine pre-treatment) | survival after CLP, treatment after rather than before CLP [5] | robust but not curative response, of surviving mice ([3]; CT26 tumors, surviving mice) | tissue damage and leukocyte/myeloid cell infiltration in lungs, liver, spleen ([3]; histology, versus parental C. novyi-NT)
1 | C[C@](N)(Cc1ccc(O)cc1)C(=O)O [metyrosine, α-methyl-tyrosine] | Comparable results were obtained | significantly decreased; also recorded: suppressed the catecholamine surge | significantly decreased; also recorded: blocked | 85% | substantially reduced | substantially reduced | not significantly affected | reduced to near normal levels; also recorded: significantly reduced | major reductions | eleven of the twelve; also recorded: twelve of the fifteen |  |  | 
2 | CC[C@H](C)[C@@H]1NC(=O)[C@H](CCCNC(=N)N)NC(=O)[C@H](CC(=O)O)NC(=O)[C@H](CCSC)NC(=O)[C@H](CCCNC(=N)N)NC(=O)CNC(=O)CNC(=O)[C@H](Cc2ccccc2)NC(=O)[C@@H](NC(=O)[C@H](CO)NC(=O)[C@H](CO)NC(=O)[C@H](CCCNC(=N)N)NC(=O)[C@H](CCCNC(=N)N)NC(=O)[C@H](CC(C)C)NC(=O)[C@@H](N)CO)CSSC[C@@H](C(=O)N[C@@H](CC(N)=O)C(=O)N[C@@H](CO)C(=O)N[C@@H](Cc2ccccc2)C(=O)N[C@@H](CCCNC(=N)N)C(=O)N[C@@H](Cc2ccc(O)cc2)C(=O)O)NC(=O)CNC(=O)[C@H](CC(C)C)NC(=O)CNC(=O)[C@H](CO)NC(=O)[C@H](CCC(N)=O)NC(=O)[C@H](C)NC(=O)CNC1=O [ANP, atrial natriuretic peptide] |  |  |  | ~75% and ~73% | major reductions |  |  |  |  |  | did not rescue the mice | 20% and 23% | major reductions
